Key:
S. mutans UA159 biofilm = experiment: S. mutans biofilm treatment in vitro on glass slides; assay type: cell-based, Streptococcus mutans; conditions: 55 μM; 10 min every 12 h, 3 times; confocal (Figure S10A-B)
Description: a concentration of 1×10^8 CFU/mL. pHly-1 NPs and CHX were diluted in BHI containing 1% sucrose to reach a series of concentration s and added to 96-well microplates (180 μL). Then, 2 μL S.mutans suspensions were seeded into 96-well microplates in the presence of different concentrations of pHly -1 NPs and CHX and the plate was incubated at 37 °C. After 24 h, the culture supernatants were gently discarded, and each well was rinsed three times with PBS (pH 7.0) to remove unattached bacteria. The bacterial viability was measured by methyl thiazol tetrazolium (MTT) assay. […] The MTT assay was performed to determined the minimum biofilm inhibition concentration (MBIC 50) by using the Microplate Reader at OD 490 nm 7. […]
S.mutans biofilm treatment in vitro, characterization and quantitative analysis.
Biofilms were formed on circular glass slides in a 24-well plate. […] B iofilms formed on glass slides were used for SEM, fluorescent staining and bacterial quantitative analyses. […]
For quantitative analysis9,10, after the treatment was finished, biofilms were removed from the glass slides and homogenized by water bath sonication followe d by probe sonication at an output of 7 W for 30 s (Branson Sonifier 150, Branson Ultrasonics). […] The effect of pHly- 1 NPs or CHX on biofilms was measured by counting the CFU of alive bacteria with agar plating after incubation for 48 h at 37 °C. […]

[1] = test system: S. mutans UA159 biofilms on sHA; experiment: Biofilm model on saliva-coated hydroxyapatite (sHA); assay type: cell-based, Streptococcus mutans; conditions: 55 µM; pH 4.5; 10 min, total of 5 days; n = 3
Description: Treatment and quantitative analysis of b iofilm model on sHA. S.mutans biofilms also formed on sHA blocks (surface area=1 ± 0.2 cm2) in 24-well plates. According to the literature10, before the experiment, hydroxyapatite (diameter, 1.25 cm; Kunshan Chinese technology new materials CO, LTD) was coated with filter-sterilized clarified human whole saliva. The biofilm formation, treatment regimen, and quantitative analysis were roughly similar to the biofilms formed on circular glass slides as described above. The differences are that the biofilms should be treated after 24 hours of formation and biofilms were treated every other day for a total of 5 days. In addition, after treatment for 5 days, the sHA blocks were washed with PBS (pH 7.0) and then fixed with 2.5 % glutaraldehyde for 10 min. After being washed another 3 times with PBS (pH 7.0) to remove the remaining glutaraldehyde, the sHA blocks were stained using 0.5% crystal violet for 20 min. The fully washed sHA blocks were observedunder a light microscope (Insein Li Fung1080P 60FPS, China).
Treatment and quantitative analysis of human derived ex vivo biofilm s. […] The total cultivable bacteria for ex vivo biofilm formation was measured to ensure the same density of added bacteria (~2× 108). […] The quantitative analysis was measured by counting the CFU of alive bacteria with agar plating after incubation for 48 h at 37 °C. […]

[H]/N=C(\N/C(=N/[H])NCCCCCCNC(=N)NC(=N)Nc1ccc(Cl)cc1)Nc1ccc(Cl)cc1 [CHX, chlorhexidine]
suppression effect on pre-formed biofilm (S. mutans UA159 biofilm): almost negligible
biofilm on sHA, viable cell count (CFU) [1]: apparent antibiofilm efficacy
